What was measured:
[1] = test system: Valley Fever (coccidioidomycosis); conditions: mouse, in vivo; cited from earlier work

In the case of `C[C@@H]([C@H](N)C(=O)N[C@H](C(=O)O)[C@H]1O[C@@H](n2ccc(=O)[nH]c2=O)[C@H](O)[C@@H]1O)[C@H](O)c1ccc(O)cn1` [Nikkomycin Z], the “stability of broth at pH 4” value is given as “reasonably stable for at least a week” and the “effectiveness at treating infected animals” value [1] is given as “quite effective at treating infected animals”.

Reference: patent US20140275511A1, “PURIFICATION OF […]” (priority 2013, published 2014)
